Data taken from patent publication US20060276528A1, “Novel benzo-fused heteroaryl sulfamide derivatives useful as anticonvulsant agents” (priority 2004, published 2006).

Experiments:
[1] = system: MES-induced seizure (full body tonic extension); test: Maximal Electroshock Test (MES), anticonvulsant activity; assay type: in vivo, CF-1 male albino mice; settings: oral; for MES @ 300 mpk: (number of mice with full body tonic extension prevented)/(total number of mice tested): 300 mg/kg; for MES @100 mpk, result in words: mice, time not given; for MES @100 mpk, result in words / MES @100 mpk: (number of mice with full body tonic extension prevented)/(total number of mice tested): 100 mg/kg
Procedure: Anticonvulsant activity was determined using the MES test, run according to the procedure described in detail below. Swinyard E A, Woodhead J H, White H S, Franklin M R. Experimental selection, quantification, and evaluation of anticonvulsants. In Levy R H, et al., eds. Antiepileptic Drugs. 3rd ed. New York: Raven Press, 1989:85-102 CF-1 male albino mice (25-35 g) were fasted for 16 hours before testing. Mice were randomly selected into control and test groups, with the animals dosed with vehicle or test compound, at varying concentrations, respectively. On the study date, at 30 minutes prior to shock, the mice were orally dosed with vehicle (0.5% methylcellulose) or test compound (100-300 mg/kg). Seizures were induced by trans-corneal electric shock using a 60-Hz alternating current, 50 mA, delivered for 0.2 sec. The mice in the test groups were subjected to electrical stimulus at time intervals between 15 minutes and 4 hours following administration of test compound. […] The test was complete when the entire course of the convulsion has been observed (typically, less than 1 minute after electrical stimulation), and the mice were then immediately euthanized by carbon dioxide inhalation. Abolition of the full body tonic extensor component of the seizure was taken as the endpoint of the test. […] The ED50 value of the test compound (calculated when appropriate) was the calculated dose required to block the hind limb tonic-extensor component of the MES-induced seizure in 50% of the rodents tested. A probit analysis was used to calculate the ED50 and 95% fiducial limits (FL). Representative compounds of the present invention were tested according to the procedure described above, with results as listed in Table 6 below. Results are listed as (number of mice with full body tonic extension prevented)/(total number of mice tested) (@ a given time).

[2] = system: carbonic anhydrase; settings: background statement, figure not given; cited from earlier work

SMILES	MES @ 300 mpk: (number of mice with full body tonic extension prevented)/(total number of mice tested) ([1]; 0.5 hr after dosing)	MES @ 300 mpk: (number of mice with full body tonic extension prevented)/(total number of mice tested) ([1]; 2 hr after dosing)	MES @ 300 mpk: (number of mice with full body tonic extension prevented)/(total number of mice tested) ([1]; 4 hr after dosing)	MES @100 mpk, result in words [1]	MES @100 mpk: (number of mice with full body tonic extension prevented)/(total number of mice tested) ([1]; 0.5 h after dosing)	MES @100 mpk: (number of mice with full body tonic extension prevented)/(total number of mice tested) ([1]; 2 h after dosing)	MES @100 mpk: (number of mice with full body tonic extension prevented)/(total number of mice tested) ([1]; 4 h after dosing)	carbonic anhydrase inhibition [2]
NS(=O)(=O)NCc1csc2cccc(Br)c12 [Compound 17, N-[(4-bromobenzo[b]thien-3-yl)methyl]-sulfamide]	0/3 (0.5 hr)	0/3 (2 hr)	1/3 (4 hr)	–	–	–	–	–
Cn1cc(CNS(N)(=O)=O)c2ccccc21 [Compound 7, N-[(1-methyl-1H-indol-3-yl)methyl]-sulfamide]	5/5 (0.5 hr)	0/5 (2 hr)	0/5 (4 hr)	inactive	–	–	–	–
NS(=O)(=O)NCc1csc2ccc(Br)cc12 [Compound 15, N-[(5-bromobenzo[b]thien-3-yl)methyl]-sulfamide]	0/3 (0.5 hr)	0/3 (2 hr)	1/3 (4 hr)	–	–	–	–	–
NS(=O)(=O)NCc1csc2ccc(Cl)cc12 [Compound 3, N-[(5-chlorobenzo[b]thien-3-yl)methyl]-sulfamide]	0/5 (0.5 hr)	3/5 (2 hr)	1/5 (4 hr)	inactive	–	–	–	–
NS(=O)(=O)NCc1csc2ccc(F)cc12 [Compound 8, N-[(5-fluorobenzo[b]thien-3-yl)methyl]-sulfamide]	–	–	–	–	0/5 (0.5 h)	4/5 (2 h)	1/5 (4 h)	–
Cc1oc2ccccc2c1CNS(N)(=O)=O [Compound 13]	–	–	–	–	4/5 (0.5 h)	0/5 (2 h)	0/5 (4 h)	–
NS(=O)(=O)NCc1csc2c(F)cccc12 [Compound 18, N-[(7-fluorobenzo[b]thien-3-yl)methyl]-sulfamide]	0/3 (0.5 hr)	2/3 (2 hr)	0/3 (4 hr)	–	–	–	–	–
CC1(C)O[C@@H]2[C@@H](CO[C@@]3(COS(N)(=O)=O)OC(C)(C)O[C@@H]23)O1 [Topiramate]	–	–	–	–	–	–	–	single digit micromolar
NS(=O)(=O)NCc1csc2ccccc12 [Compound 1, N-(benzo[b]thien-3-ylmethyl)-sulfamide]	–	–	–	–	1/5 (0.5 h)	3/5 (2 h)	2/5 (4 h)	–
NS(=O)(=O)NCc1cccc2ccccc12 [Compound 10, N-(1-naphthalenylmethyl)-sulfamide]	–	–	–	–	2/5 (0.5 h)	1/5 (2 h)	0/5 (4 h)	–
NS(=O)(=O)NCc1coc2ccccc12 [Compound 6, N-(3-benzofuranylmethyl)-sulfamide]	5/5 (0.5 hr)	0/5 (2 hr)	0/5 (4 hr)	inactive	–	–	–	–
CC(NS(N)(=O)=O)c1csc2ccccc12 (stereo not shown) [Compound 9, N-(1-benzo[b]thien-3-ylethyl)-sulfamide]	–	–	–	–	1/5 (0.5 h)	0/5 (2 h)	0/5 (4 h)	–
